Experimental data as given in patent publication US9168275B2 (priority 2000, dated 2015).

Key:
tetanus toxin = tetanus toxin (Clostridium tetani, UniProt P04958); conditions: cited from earlier work
clostridia = conditions: cited from earlier work
[1] = tested on: children with regressive onset autism; conditions: in vivo
Bacteroides = conditions: cited from earlier work
[2] = in vivo, po; cited from earlier work
[3] = tested on: person with chronic diarrhea and autism; assay type: in vivo, human
Description: Diarrhea began after three 10 day courses of broad spectrum antimicrobials prescribed over a six week period for “chronic otitis media.” There was no blood or pus in the stool nor associated constitutional symptoms. There was profound behavioral and developmental deterioration, along with emergence of severe autistic features.
A 12 week therapeutic trial of oral vancomycin (125 mg QID) was begun with expanded observations by a pediatric neuropsychologist pre- and post-treatment. At baseline, the child was not on a special diet nor was […] taking any vitamin supplements. Three days after initiation of the vancomycin therapy, a hyperactivity pattern emerged which lasted for four days. […] became affectionate and relatively calm. […] promptly achieved toilet training and increased vocabulary. Follow-up behavioral observations after eight weeks of therapy noted an increase in on-task performance, compliance with parental requests, awareness of environmental surroundings, and persistence when engaging in positive activities. […] The child's educational therapies remained unchanged for both six months before and during the vancomycin trial. […] Though still improved over baseline, […] eventually lost most of the initial gains.

Sequence of tetanus toxin (P04958 whole entry, looked up): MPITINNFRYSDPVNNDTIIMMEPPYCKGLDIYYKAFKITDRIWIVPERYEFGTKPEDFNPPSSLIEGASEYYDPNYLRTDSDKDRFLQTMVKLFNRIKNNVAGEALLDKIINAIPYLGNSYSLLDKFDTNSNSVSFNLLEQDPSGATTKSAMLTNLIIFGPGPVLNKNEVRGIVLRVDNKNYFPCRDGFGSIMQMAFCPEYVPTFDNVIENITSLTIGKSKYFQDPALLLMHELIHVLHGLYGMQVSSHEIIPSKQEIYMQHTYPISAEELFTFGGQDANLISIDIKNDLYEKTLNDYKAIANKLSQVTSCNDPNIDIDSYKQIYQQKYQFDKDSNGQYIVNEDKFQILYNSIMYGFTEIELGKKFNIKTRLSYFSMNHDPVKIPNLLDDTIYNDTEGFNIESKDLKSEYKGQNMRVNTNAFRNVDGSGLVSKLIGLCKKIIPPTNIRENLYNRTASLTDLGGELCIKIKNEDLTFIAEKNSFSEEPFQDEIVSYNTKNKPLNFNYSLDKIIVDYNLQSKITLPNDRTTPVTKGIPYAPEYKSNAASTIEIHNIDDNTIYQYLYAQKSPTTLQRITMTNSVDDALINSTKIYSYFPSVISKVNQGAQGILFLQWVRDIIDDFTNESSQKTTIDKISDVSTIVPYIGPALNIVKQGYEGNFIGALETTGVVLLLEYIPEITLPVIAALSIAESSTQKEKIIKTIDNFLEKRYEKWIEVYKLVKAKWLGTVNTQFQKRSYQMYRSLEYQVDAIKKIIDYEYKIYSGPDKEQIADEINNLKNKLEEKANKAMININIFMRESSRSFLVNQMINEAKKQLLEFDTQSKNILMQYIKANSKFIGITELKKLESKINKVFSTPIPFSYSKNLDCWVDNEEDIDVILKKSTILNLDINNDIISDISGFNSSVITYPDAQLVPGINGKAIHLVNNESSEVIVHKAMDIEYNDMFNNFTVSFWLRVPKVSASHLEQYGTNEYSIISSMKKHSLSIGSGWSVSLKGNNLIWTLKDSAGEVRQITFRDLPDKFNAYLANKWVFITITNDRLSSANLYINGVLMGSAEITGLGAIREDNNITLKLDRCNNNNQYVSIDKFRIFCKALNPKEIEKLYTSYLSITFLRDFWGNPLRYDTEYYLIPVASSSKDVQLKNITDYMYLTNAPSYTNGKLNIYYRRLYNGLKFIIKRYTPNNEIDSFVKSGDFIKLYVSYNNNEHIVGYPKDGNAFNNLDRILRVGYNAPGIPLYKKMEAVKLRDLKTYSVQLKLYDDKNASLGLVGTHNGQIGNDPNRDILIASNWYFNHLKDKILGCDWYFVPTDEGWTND

Structure (SMILES)	Effect on tetanus toxin in vitro (tetanus toxin)	Activity against clostridia (clostridia)	Analog rating scale, improvement in behavior: Wilcoxon Signed Ranks Z [1]	Analog rating scale, improvement in behavior: p [1]	Analog rating scale, improvement in communication: Wilcoxon Signed Ranks Z [1]	Analog rating scale, improvement in communication: p [1]	Analog ratings at long-term follow-up [1]	Basic blood, stool and urine tests [1]	Brief (1-4 days) period of hyperactivity: children affected [1]	Day of marked lethargy: subjects affected [1]	Blinded assessment of coded, paired videotapes: possible deterioration ([1]; po)	Activity against Bacteroides (Bacteroides)	Concentration in the intestines [2]	Repetitive and self-stimulatory behaviors ([3]; after eight weeks of therapy)	Course shortly after discontinuation ([3]; after vancomycin discontinuation)	Clinical response ([3]; oral vancomycin 125 mg QID, 12 weeks)
C[C@H](CS)C(=O)N1CCC[C@H]1C(=O)O [Captopril]	inactivates															
CN[C@H](CC(C)C)C(=O)N[C@H]1C(=O)N[C@@H](CC(N)=O)C(=O)N[C@H]2C(=O)N[C@H]3C(=O)N[C@H](C(=O)N[C@H](C(=O)O)c4cc(O)cc(O)c4-c4cc3ccc4O)[C@H](O)c3ccc(c(Cl)c3)Oc3cc2cc(c3O[C@@H]2O[C@H](CO)[C@@H](O)[C@H](O)[C@H]2O[C@H]2C[C@](C)(N)[C@H](O)[C@H](C)O2)Oc2ccc(cc2Cl)[C@H]1O [vancomycin]		effective	−2.9	0.003	2.9	0.003	returned towards baseline	unremarkable	six	One	one	effective	high concentration	significant reduction	behavioral deterioration	rapid and dramatic clinical improvement
CC1(C)S[C@@H]2[C@H](NC(=O)[C@H](N)c3ccccc3)C(=O)N2[C@H]1C(=O)O [ampicillin]		active														
